# Biological target: T1, KRAS G12C 1-169, his-tagged protein, GDP-loaded (Homo sapiens, UniProt P01116, G12C)
# T1 construct: KRAS G12C 1-169, his-tagged protein, GDP-loaded
# Experiment: Biochemical assay: covalent binding to KRAS G12C analyzed by mass spectrometry
# Settings: compounds 1-47, measured at 24 h
# Method: Compounds were tested for activity as follows:
# Compounds were diluted to 50× final test concentration in DMSO in 96-well storage plates. […] Reactions were mixed carefully and thoroughly by pipetting up/down with a 200 μl multi-channel pipettor. […] 5 μl of 2% formic acid (Fisher cat#A117) in DI H2O was then added to each well followed by mixing with a pipette. The plate was then resealed with aluminum seal and stored on dry ice until analyzed as described below.
# The above described assays were analyzed by mass spectrometry according to the following procedure:
# The MS instrument is set to positive polarity, 2 GHz resolution, and low mass (1700) mode and allowed to equilibrate for 30 minutes. The instrument is then calibrated, switched to acquisition mode and the appropriate method loaded.
# After another 30 minute equilibration time, a blank batch (i.e., buffer) is run to ensure equipment is operating properly. The samples are thawed at 37° C. for 10 minutes, briefly centrifuged, and transfer to the bench top. Wells A1 and H12 are spiked with 1 μL 500 μM internal standard peptide, and the plates centrifuged at 2000×g for 5 minutes. The method is then run and masses of each individual well recorded.
# The masses (for which integration data is desired) for each well are pasted into the platemap and exported from the analysis. Masses for the internal standards are exported as well. The data at 50 ppm is extracted for the +19 charge state, and identity of well A1 is assigned using the internal standard spike and integrated. Peak data is exported as a TOF list and the above steps are repeated individually, for the +20, 21, 22, 23, 24, and 25 charge states.
# T1 sequence (P01116 1-169 isoform P01116-2 G12C): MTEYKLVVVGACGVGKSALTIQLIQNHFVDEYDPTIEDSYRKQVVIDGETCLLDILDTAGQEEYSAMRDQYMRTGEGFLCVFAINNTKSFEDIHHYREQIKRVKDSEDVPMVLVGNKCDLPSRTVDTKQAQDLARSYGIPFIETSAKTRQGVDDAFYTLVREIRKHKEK
row,Structure (SMILES),Binding %
1,"C=CC(=O)N1CCN(c2ncnc3cc(Cl)c(-c4ccccc4Cl)cc23)CC1 [Compound I-1, 1-(4-(7-chloro-6-(2-chlorophenyl)quinazolin-4-yl)piperazin-1-yl)prop-2-en-1-one]",+++ (+++indicates binding activity greater than 50% and up to 75%)
2,"C=CC(=O)N1CCC(Nc2ncnc3cc(Cl)c(-c4ccccc4Cl)cc23)CC1 [Compound I-2, 1-(4-(7-chloro-6-(2-chlorophenyl)quinazolin-4-ylamino)piperidin-1-yl)prop-2-en-1-one]",+ (+indicates binding activity from 5% to 25%)
3,"C=CC(=O)N1CCN(c2n[nH]c3cc(Cl)c(-c4ccccc4Cl)cc23)CC1 [Compound I-3, 1-(4-(6-chloro-5-(2-chlorophenyl)-1H-indazol-3-yl)piperazin-1-yl)prop-2-en-1-one]",+ (+indicates binding activity from 5% to 25%)
4,"C=CC(=O)N1CCN(c2ncnc3cc(Cl)c(-c4ccc(Cl)cc4)cc23)CC1 [Compound I-4, 1-(4-(7-chloro-6-(4-chlorophenyl)quinazolin-4-yl)piperazin-1-yl)prop-2-en-1-one]",++++ (++++indicates binding activity greater than 75%)
5,"C=CC(=O)N1CCN(c2ncnc3cc(Cl)c(-c4cccc(Cl)c4)cc23)CC1 [Compound I-5, 1-(4-(7-chloro-6-(3-chlorophenyl)quinazolin-4-yl)piperazin-1-yl)prop-2-en-1-one]",+++ (+++indicates binding activity greater than 50% and up to 75%)
6,"C=CC(=O)N1CCN(c2ncnc3cc(Cl)c(-c4ccc(Cl)cc4Cl)cc23)CC1 [Compound I-6, 1-(4-(7-chloro-6-(2,4-dichlorophenyl)quinazolin-4-yl)piperazin-1-yl)prop-2-en-1-one]",+++ (+++indicates binding activity greater than 50% and up to 75%)

# Same assay, conditions: compounds 247-342, measured at 30 min
row,Structure (SMILES),Binding %
1,"C=CC(=O)N1CCN(c2nc(OCCN(C)C)nc3c(F)c(-c4c(C)ccc5[nH]ncc45)c(Cl)cc23)CC1 [Compound 323, 1-(4-(6-chloro-2-(2-(dimethylamino)ethoxy)-8-fluoro-7-(5-methyl-1H-indazol-4-yl)quinazolin-4-yl)piperazin-1-yl)prop-2-en-1-one]",+++ (+++indicates binding activity greater than 50% and up to 75%)
2,"C=CC(=O)N1CCN(c2ncnc3c(F)c(-c4cccc5c(C)n[nH]c45)c(Cl)cc23)CC1 [Compound 324, 1-(4-(6-chloro-8-fluoro-7-(3-methyl-1H-indazol-7-yl)quinazolin-4-yl)piperazin-1-yl)prop-2-en-1-one]",+ (+indicates binding activity from 5% to 25%)
3,"CN(C)C/C=C/C(=O)N1CCN(c2ncnc3c(F)c(-c4cc(O)cc5ccccc45)c(Cl)cc23)CC1 [Compound 325, (E)-1-(4-(6-chloro-8-fluoro-7-(3-hydroxynaphthalen-1-yl)quinazolin-4-yl)piperazin-1-yl)-4-(dimethylamino)but-2-en-1-one]",++ (++indicates binding activity greater than 25% and up to 50%)
4,"C=CC(=O)N1CCN(c2nc(=O)[nH]c3cc(-c4c(C)ccc5[nH]ncc45)c(Cl)cc23)CC1 [Compound 326, 4-(4-acryloylpiperazin-1-yl)-6-chloro-7-(5-methyl-1H-indazol-4-yl)quinazolin-2(1H)-one]",+ (+indicates binding activity from 5% to 25%)
5,"C=CC(=O)N1CCN(c2ncnc3c(F)c(-c4c(C)ccc5[nH]ncc45)c(Cl)cc23)CC1C (centres unmarked) [Compound 327, 1-(4-(6-chloro-8-fluoro-7-(5-methyl-1H-indazol-4-yl)quinazolin-4-yl)-2-methylpiperazin-1-yl)prop-2-en-1-one]",++ (++indicates binding activity greater than 25% and up to 50%)
6,"C/C=C/C(=O)N1CCN(c2ncnc3c(F)c(-c4cc(O)cc5ccccc45)c(Cl)cc23)CC1C (centres unmarked) [Compound 328, (E)-1-(4-(6-chloro-8-fluoro-7-(3-hydroxynaphthalen-1-yl)quinazolin-4-yl)-2-methylpiperazin-1-yl)but-2-en-1-one]",+ (+indicates binding activity from 5% to 25%)
7,"C=CC(=O)N1CCN(c2nc(OCCCN(C)C)nc3cc(-c4c(C)ccc5[nH]ncc45)c(Cl)cc23)CC1 [Compound 329, 1-(4-(6-chloro-2-(3-(dimethylamino)propoxy)-7-(5-methyl-1H-indazol-4-yl)quinazolin-4-yl)piperazin-1-yl)prop-2-en-1-one]",++ (++indicates binding activity greater than 25% and up to 50%)
8,"C=CC(=O)N1CCN(c2nc(NC3CCOC3)nc3cc(-c4c(C)ccc5[nH]ncc45)c(Cl)cc23)CC1 (centres unmarked) [Compound 330, 1-(4-(6-chloro-7-(5-methyl-1H-indazol-4-yl)-2-(tetrahydrofuran-3-ylamino)quinazolin-4-yl)piperazin-1-yl)prop-2-en-1-one]",++ (++indicates binding activity greater than 25% and up to 50%)
9,"C=CC(=O)N1CCN(c2ncnc3c(F)c(-c4c(F)ccc5[nH]ncc45)c(Cl)cc23)CC1 [Compound 331, 1-(4-(6-chloro-8-fluoro-7-(5-fluoro-1H-indazol-4-yl)quinazolin-4-yl)piperazin-1-yl)prop-2-en-1-one]",++ (++indicates binding activity greater than 25% and up to 50%)
10,"C=CC(=O)N1CCN(c2nc(-c3cncs3)nc3c(F)c(-c4c(C)ccc5[nH]ncc45)c(Cl)cc23)CC1 [Compound 332, 1-(4-(6-chloro-8-fluoro-7-(5-methyl-1H-indazol-4-yl)-2-(thiazol-5-yl)quinazolin-4-yl)piperazin-1-yl)prop-2-en-1-one]",++ (++indicates binding activity greater than 25% and up to 50%)
11,"Cc1ccc2[nH]ncc2c1-c1c(Cl)cc2c(N3CCN(C(=O)/C=C/CN(C)C)CC3)nc(-c3cncs3)nc2c1F [Compound 333, (E)-1-(4-(6-chloro-8-fluoro-7-(5-methyl-1H-indazol-4-yl)-2-(thiazol-5-yl)quinazolin-4-yl)piperazin-1-yl)-4-(dimethylamino)but-2-en-1-one]",+ (+indicates binding activity from 5% to 25%)
12,"C=CC(=O)N1CCN(c2ncnc3c(F)c(-c4c(C)ccc5[nH]ncc45)c(Cl)cc23)CC1 [Compound 334, 1-(4-(6-chloro-8-fluoro-7-(5-methyl-1H-indazol-4-yl)quinazolin-4-yl)piperazin-1-yl)prop-2-en-1-one]",++++ (++++indicates binding activity greater than 75%)
13,"NC/C=C/C(=O)N1CCN(c2ncnc3c(F)c(-c4cc(O)cc5ccccc45)c(Cl)cc23)CC1 [Compound 335, (E)-4-amino-1-(4-(6-chloro-8-fluoro-7-(3-hydroxynaphthalen-1-yl)quinazolin-4-yl)piperazin-1-yl)but-2-en-1-one]",++++ (++++indicates binding activity greater than 75%)
14,"C=CC(=O)N1CCN(c2c(C#N)cnc3c(F)c(-c4c(C)ccc5[nH]ncc45)c(Cl)cc23)CC1C (centres unmarked) [Compound 336, 4-(4-acryloyl-3-methylpiperazin-1-yl)-6-chloro-8-fluoro-7-(5-methyl-1H-indazol-4-yl)quinoline-3-carbonitrile]",+++ (+++indicates binding activity greater than 50% and up to 75%)
15,C=CC(=O)N1CCN(c2ncnc3c(F)c(-c4cc(C(F)F)cc5ccccc45)c(Cl)cc23)CC1 [Compound 337],+ (+indicates binding activity from 5% to 25%)
16,"C=CC(=O)N1CCN(c2nc(N(C)C)nc3c(F)c(-c4c(C)ccc5[nH]ncc45)c(Cl)cc23)CC1 [Compound 338, 1-(4-(6-chloro-2-(dimethylamino)-8-fluoro-7-(5-methyl-1H-indazol-4-yl)quinazolin-4-yl)piperazin-1-yl)prop-2-en-1-one]",++ (++indicates binding activity greater than 25% and up to 50%)
17,"C=CC(=O)N1CCN(c2nc(OCCCN(C)C)nc3c(F)c(-c4c(C)ccc5[nH]ncc45)c(Cl)cc23)CC1 [Compound 339, 1-(4-(6-chloro-2-(3-(dimethylamino)propoxy)-8-fluoro-7-(5-methyl-1H-indazol-4-yl)quinazolin-4-yl)piperazin-1-yl)prop-2-en-1-one]",++++ (++++indicates binding activity greater than 75%)
18,"C=CC(=O)N1CCN(c2ncnc3c(F)c(-c4c(C)ccc5[nH]nc(F)c45)c(Cl)cc23)CC1 [Compound 340, 1-(4-(6-chloro-8-fluoro-7-(3-fluoro-5-methyl-1H-indazol-4-yl)quinazolin-4-yl)piperazin-1-yl)prop-2-en-1-one]",++++ (++++indicates binding activity greater than 75%)
19,"C=CC(=O)N1CCN(c2nc(OCCN(C)C)nc3c(F)c(-c4c(O)cccc4F)c(Cl)cc23)CC1 [Compound 341, 1-(4-(6-chloro-2-(2-(dimethylamino)ethoxy)-8-fluoro-7-(2-fluoro-6-hydroxyphenyl)quinazolin-4-yl)piperazin-1-yl)prop-2-en-1-one]",++++ (++++indicates binding activity greater than 75%)
20,"C=CC(=O)N1CCN(c2nc(OCCN3CCOCC3)nc3c(F)c(-c4c(C)ccc5[nH]ncc45)c(Cl)cc23)CC1 [Compound 342, 1-(4-(6-chloro-8-fluoro-7-(5-methyl-1H-indazol-4-yl)-2-(2-morpholinoethoxy)quinazolin-4-yl)piperazin-1-yl)prop-2-en-1-one]",++++ (++++indicates binding activity greater than 75%)

# — patent US10111874B2, “Combination therapies for treatment of cancer” (Araxes Pharma LLC, priority 2014, dated 2018)
